# Target: T1, hTSHR (Homo sapiens, UniProt P16473)
# T1 construct: expressed in transfected cells
# Assay: hTSHR TR-FRET cAMP Assay (inhibition of M22-stimulated cAMP production)
# Assay type: cell-based
# Details: Expi293F Inducible cells stably expressing hTSHR; cAMP HTRF; stimulated with EC80 of anti-TSHR antibody M22; 15 min compound preincubation, 30 min at 37° C.; read-out: Activity (IC50 bins)
# Summary of the method: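 Readout was a cAMP HTRF ratio of 655/620 nm after lysis, scaled between the EC80 M22 signal (0% inhibition) and no-agonist vehicle (100%). Frozen induced Expi293F-hTSHR cells saw test compounds (0.5% DMSO) for 15 min at 37 °C before 30 min of M22 stimulation at EC80.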
# T1 sequence (P16473 21-764): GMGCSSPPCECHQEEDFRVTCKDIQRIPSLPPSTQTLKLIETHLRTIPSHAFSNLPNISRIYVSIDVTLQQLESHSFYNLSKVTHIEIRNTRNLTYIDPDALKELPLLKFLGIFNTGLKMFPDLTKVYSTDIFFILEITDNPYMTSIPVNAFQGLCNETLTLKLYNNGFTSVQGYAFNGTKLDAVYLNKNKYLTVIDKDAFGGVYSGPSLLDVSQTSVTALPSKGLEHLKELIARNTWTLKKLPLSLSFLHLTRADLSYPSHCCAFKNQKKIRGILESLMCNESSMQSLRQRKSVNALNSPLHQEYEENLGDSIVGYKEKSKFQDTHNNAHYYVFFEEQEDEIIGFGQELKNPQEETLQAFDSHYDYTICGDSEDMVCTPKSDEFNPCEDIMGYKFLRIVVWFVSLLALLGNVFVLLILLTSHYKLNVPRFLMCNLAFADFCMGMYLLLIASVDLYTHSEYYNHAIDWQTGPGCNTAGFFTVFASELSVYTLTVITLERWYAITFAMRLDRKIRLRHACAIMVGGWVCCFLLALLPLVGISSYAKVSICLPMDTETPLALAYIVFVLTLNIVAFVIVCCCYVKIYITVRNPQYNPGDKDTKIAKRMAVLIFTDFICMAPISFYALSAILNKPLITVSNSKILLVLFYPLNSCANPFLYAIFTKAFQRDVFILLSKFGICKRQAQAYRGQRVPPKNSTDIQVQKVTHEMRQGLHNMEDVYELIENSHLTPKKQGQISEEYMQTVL
row,IC50,SMILES
1,> 1000 nM,"CC(C)(C)NC(=O)Nc1ccc2c(c1)C[C@@H](CC#N)C(=O)N2Cc1ccccc1 [Example 276, (S)-1-(1-benzyl-3-(cyanomethyl)-2-oxo-1,2,3,4-tetrahydroquinolin-6-yl)-3-(tert-butyl)urea]"
2,> 1000 nM,"CC[C@H]1Oc2cc(NC(=O)NC(C)(C)C)ccc2N(Cc2ccccc2)C1=O [Example 277, (R)-1-(4-benzyl-2-ethyl-3-oxo-3,4-dihydro-2H-benzo[b][1,4]oxazin-7-yl)-3-(tert-butyl)urea]"
3,> 1000 nM,"CC[C@@H]1Oc2cc(NC(=O)NC(C)(C)C)ccc2N(Cc2ccccc2)C1=O [Example 278, (S)-1-(4-benzyl-2-ethyl-3-oxo-3,4-dihydro-2H-benzo[b][1,4]oxazin-7-yl)-3-(tert-butyl)urea]"
4,> 1000 nM,"CC(C)(C)NC(=O)Nc1ccc2c(c1C#N)CCC(=O)N2Cc1ccccc1 [Example 279, 1-(1-benzyl-5-cyano-2-oxo-1,2,3,4-tetrahydroquinolin-6-yl)-3-(tert-butyl)urea]"
5,100 to 1000 nM,"C[C@H]1Oc2nc(NC(=O)NC(C)(C)C)ccc2N(Cc2ccccc2)C1=O [Example 280, (R)-1-(1-benzyl-3-methyl-2-oxo-2,3-dihydro-1H-pyrido[2,3-b][1,4]oxazin-6-yl)-3-(tert-butyl)urea]"
6,100 to 1000 nM,"CC(C)(C)NC(=O)Nc1ccc2c(n1)CCC(=O)N2Cc1cccc(Cl)c1 [Example 281, 1-(tert-butyl)-3-(5-(3-chlorobenzyl)-6-oxo-5,6,7,8-tetrahydro-1,5-naphthyridin-2-yl)urea]"
7,100 to 1000 nM,"C[C@@H](c1cccc(C(F)(F)F)c1)N1C(=O)CCc2nc(NC(=O)NC(C)(C)C)ccc21 [Example 282, (S)-1-(tert-butyl)-3-(6-oxo-5-(1-(3-(trifluoromethyl)phenyl)ethyl)-5,6,7,8-tetrahydro-1,5-naphthyridin-2-yl)urea]"
8,> 1000 nM,"C[C@H](c1cccc(C(F)(F)F)c1)N1C(=O)CCc2nc(NC(=O)NC(C)(C)C)ccc21 [Example 283, (R)-1-(tert-butyl)-3-(6-oxo-5-(1-(3-(trifluoromethyl)phenyl)ethyl)-5,6,7,8-tetrahydro-1,5-naphthyridin-2-yl)urea]"
9,> 1000 nM,"O=C(Nc1ccccc1)Nc1ccc2c(c1)CCC(=O)N2Cc1ccccc1 [Example 284, 3-(1-benzyl-2-oxo-3,4-dihydroquinolin-6-yl)-1-phenylurea]"
10,> 1000 nM,"CC(C)(C)CC(=O)Nc1ccc2c(c1)CCC(=O)N2Cc1ccccc1 [Example 285, N-(1-benzyl-2-oxo-3,4-dihydroquinolin-6-yl)-3,3-dimethylbutanamide]"
11,> 1000 nM,"C[C@@H]1Oc2nc(NC(=O)NC(C)(C)C)ccc2N(Cc2cccc(Cl)c2)C1=O [Example 286, (S)-1-(tert-butyl)-3-(1-(3-chlorobenzyl)-3-methyl-2-oxo-2,3-dihydro-1H-pyrido[2,3-b][1,4]oxazin-6-yl)urea]"
12,100 to 1000 nM,"C[C@H]1Oc2nc(NC(=O)NC(C)(C)C)ccc2N(Cc2cccc(Cl)c2)C1=O [Example 287, (R)-1-(tert-butyl)-3-(1-(3-chlorobenzyl)-3-methyl-2-oxo-2,3-dihydro-1H-pyrido[2,3-b][1,4]oxazin-6-yl)urea]"
13,> 1000 nM,"COC[C@@H]1Oc2cc(NC(=O)NC(C)(C)C)ccc2N(Cc2ccccc2)C1=O [Example 288, (S)-1-(4-benzyl-2-(methoxymethyl)-3-oxo-3,4-dihydro-2H-benzo[b][1,4]oxazin-7-yl)-3-(tert-butyl)urea]"
14,> 1000 nM,"COC[C@H]1Oc2cc(NC(=O)NC(C)(C)C)ccc2N(Cc2ccccc2)C1=O [Example 289, (R)-1-(4-benzyl-2-(methoxymethyl)-3-oxo-3,4-dihydro-2H-benzo[b][1,4]oxazin-7-yl)-3-(tert-butyl)urea]"
15,> 1000 nM,"C[C@@H](c1cccc(Cl)c1)N1C(=O)CCc2nc(NC(=O)NC(C)(C)C)ccc21 [Example 290, (S)-1-(tert-butyl)-3-(5-(1-(3-chlorophenyl)ethyl)-6-oxo-5,6,7,8-tetrahydro-1,5-naphthyridin-2-yl)urea]"
16,100 to 1000 nM,"C[C@H](c1cccc(Cl)c1)N1C(=O)CCc2nc(NC(=O)NC(C)(C)C)ccc21 [Example 291, (R)-1-(tert-butyl)-3-(5-(1-(3-chlorophenyl)ethyl)-6-oxo-5,6,7,8-tetrahydro-1,5-naphthyridin-2-yl)urea]"
17,> 1000 nM,"CC(C)(C)NC(=O)Nc1ccc2c(c1)OC(C)(C)C(=O)N2Cc1ccccc1 [Example 292, 1-(4-benzyl-2,2-dimethyl-3-oxo-3,4-dihydro-2H-benzo[b][1,4]oxazin-7-yl)-3-(tert-butyl)urea]"
18,> 1000 nM,"CC(c1cc(Cl)ccc1C#N)N1C(=O)COc2cc(NC(=O)NC(C)(C)C)ccc21 (stereo not drawn) [Example 293, 1-(tert-butyl)-3-(4-(1-(5-chloro-2-cyanophenyl)ethyl)-3-oxo-3,4-dihydro-2H-benzo[b][1,4]oxazin-7-yl)urea]"

row,IC50,SMILES
1,> 1000 nM,"CC(C)(C)NC(=O)Nc1ccc2c(c1)nc(N)c(=O)n2Cc1ccccc1 [Example 294, 1-(3-amino-1-benzyl-2-oxo-1,2-dihydroquinoxalin-6-yl)-3-(tert-butyl)urea]"
2,> 1000 nM,"CCc1nc2cc(NC(=O)NC(C)(C)C)ccc2n(Cc2cccc(OC(F)(F)F)c2)c1=O [Example 295, 1-(tert-butyl)-3-(3-ethyl-2-oxo-1-(3-(trifluoromethoxy)benzyl)-1,2-dihydroquinoxalin-6-yl)urea]"
3,100 to 1000 nM,"CC(C)(C)NC(=O)Nc1ccc2c(c1)OCC(=O)N2C(c1ccccc1)C(F)(F)F (stereo not drawn) [Example 296, 1-(tert-butyl)-3-(3-oxo-4-(2,2,2-trifluoro-1-phenylethyl)-3,4-dihydro-2H-benzo[b][1,4]oxazin-7-yl)urea]"
4,100 to 1000 nM,"COc1cccc([C@H](C)N2C(=O)CCc3cc(NC(=O)NC(C)(C)C)ccc32)c1 [Example 297, (S)-1-(tert-butyl)-3-(1-(1-(3-methoxyphenyl)ethyl)-2-oxo-1,2,3,4-tetrahydroquinolin-6-yl)urea]"
5,> 1000 nM,"CC(C)(C)NC(=O)Nc1ccc2c(c1)CCC(=O)N2C1CCOc2ccccc21 (stereo not drawn) [Example 298, 1-(tert-butyl)-3-(1-(chroman-4-yl)-2-oxo-1,2,3,4-tetrahydroquinolin-6-yl)urea]"
6,100 to 1000 nM,"C[C@@H](c1cccc(C(F)(F)F)n1)n1c(=O)cnc2cc(NC(=O)CCc3cccc(C(F)(F)F)c3)ccc21 [Example 299, (S)—N-(2-oxo-1-(1-(6-(trifluoromethyl)pyridin-2-yl)ethyl)-1,2-dihydroquinoxalin-6-yl)-3-(3-(trifluoromethyl)phenyl)propanamide]"
7,100 to 1000 nM,"C[C@@H](c1cccc(C(F)(F)F)n1)n1c(=O)cnc2cc(NC(=O)CCC(C)(C)C)ccc21 [Example 300, (S)-4,4-dimethyl-N-(2-oxo-1-(1-(6-(trifluoromethyl)pyridin-2-yl)ethyl)-1,2-dihydroquinoxalin-6-yl)pentanamide]"
8,> 1000 nM,"CC(C)(C)NC(=O)Nc1ccc2c(c1)CC(C(F)(F)F)C(=O)N2Cc1ccccc1 (stereo not drawn) [Example 301, 1-(1-benzyl-2-oxo-3-(trifluoromethyl)-1,2,3,4-tetrahydroquinolin-6-yl)-3-(tert-butyl)urea]"
9,> 1000 nM,"CC(C)(C)NC(=O)Nc1ccc2c(c1)CNC(=O)N2Cc1ccccc1 [Example 302, 1-(1-benzyl-2-oxo-1,2,3,4-tetrahydroquinazolin-6-yl)-3-(tert-butyl)urea]"
10,< 100 nM,"C[C@H]1Oc2cc(NC(=O)OC3CCCC3)ccc2N([C@@H](C)c2ccccc2)C1=O [Example 303, cyclopentyl ((R)-2-methyl-3-oxo-4-((S)-1-phenylethyl)-3,4-dihydro-2H-benzo[b][1,4]oxazin-7-yl)carbamate]"
11,< 100 nM,"C[C@H]1Oc2cc(NC(=O)OC3CCCC3)ccc2N(Cc2cccc(C(F)(F)F)n2)C1=O [Example 304, cyclopentyl N-[(2R)-2-methyl-3-oxo-4-{[6-(trifluoromethyl)pyridin-2-yl]methyl}-2H-1,4-benzoxazin-7-yl]carbamate]"
12,100 to 1000 nM,"CC(C)(C)NC(=O)Nc1ccc2c(c1)OC(CF)C(=O)N2Cc1ccccc1 (stereo not drawn) [Example 305, 1-[4-benzyl-2-(fluoromethyl)-3-oxo-2H-1,4-benzoxazin-7-yl]-3-tert-butylurea]"
13,100 to 1000 nM,"C[C@H](c1cncc(C(F)(F)F)n1)N1C(=O)[C@@H](C)Oc2cc(NC(=O)NC(C)(C)C)ccc21 [Example 307, 1-(tert-butyl)-3-((R)-2-methyl-3-oxo-4-((R)-1-(6-(trifluoromethyl)pyrazin-2-yl)ethyl)-3,4-dihydro-2H-benzo[b][1,4]oxazin-7-yl)urea]"
14,100 to 1000 nM,"CC1(C)CCCC1C(=O)Nc1ccc2c(c1)ncc(=O)n2Cc1ccccc1 (stereo not drawn) [Example 308, N-(1-benzyl-2-oxo-1,2-dihydroquinoxalin-6-yl)-2,2-dimethylcyclopentane-1-carboxamide]"
15,100 to 1000 nM,"CC(C)(C)NC(=O)Nc1ccc2c(c1)CCC(=O)N2C1CCc2ccccc21 (stereo not drawn) [Example 309, 1-(tert-butyl)-3-(1-(2,3-dihydro-1H-inden-1-yl)-2-oxo-1,2,3,4-tetrahydroquinolin-6-yl)urea]"
16,100 to 1000 nM,"CC(c1cccc(OC(F)(F)F)c1F)n1c(=O)cnc2cc(NC(=O)NC(C)(C)C)ccc21 (stereo not drawn) [Example 312, 1-(tert-butyl)-3-(1-(1-(2-fluoro-3-(trifluoromethoxy)phenyl)ethyl)-2-oxo-1,2-dihydroquinoxalin-6-yl)urea]"
17,> 1000 nM,"C[C@@H](c1cccc(OCC(F)(F)F)c1)n1c(=O)cnc2cc(NC(=O)NC(C)(C)C)ccc21 [Example 313, (S)-1-(tert-butyl)-3-(2-oxo-1-(1-(3-(2,2,2-trifluoroethoxy)phenyl)ethyl)-1,2-dihydroquinoxalin-6-yl)urea]"
18,100 to 1000 nM,"C[C@H](c1cccc(OCC(F)(F)F)c1)n1c(=O)cnc2cc(NC(=O)NC(C)(C)C)ccc21 [Example 314, (R)-1-(tert-butyl)-3-(2-oxo-1-(1-(3-(2,2,2-trifluoroethoxy)phenyl)ethyl)-1,2-dihydroquinoxalin-6-yl)urea]"
